Where two headings read alike, the source gives them in different places. Some results are limits rather than exact numbers.

For the experiment, the target named is His-Tagged hOGA (human O-GlcNAcase) (Homo sapiens (Human), UniProt O60502). In words: Human O-GlcNAcase enzyme inhibition assay (Example B01). Particulars: for IC50: OGA enzyme inhibition assay, activity range classes. The class given is biochemical.
His-Tagged hOGA (human O-GlcNAcase), sequence (O60502 whole entry): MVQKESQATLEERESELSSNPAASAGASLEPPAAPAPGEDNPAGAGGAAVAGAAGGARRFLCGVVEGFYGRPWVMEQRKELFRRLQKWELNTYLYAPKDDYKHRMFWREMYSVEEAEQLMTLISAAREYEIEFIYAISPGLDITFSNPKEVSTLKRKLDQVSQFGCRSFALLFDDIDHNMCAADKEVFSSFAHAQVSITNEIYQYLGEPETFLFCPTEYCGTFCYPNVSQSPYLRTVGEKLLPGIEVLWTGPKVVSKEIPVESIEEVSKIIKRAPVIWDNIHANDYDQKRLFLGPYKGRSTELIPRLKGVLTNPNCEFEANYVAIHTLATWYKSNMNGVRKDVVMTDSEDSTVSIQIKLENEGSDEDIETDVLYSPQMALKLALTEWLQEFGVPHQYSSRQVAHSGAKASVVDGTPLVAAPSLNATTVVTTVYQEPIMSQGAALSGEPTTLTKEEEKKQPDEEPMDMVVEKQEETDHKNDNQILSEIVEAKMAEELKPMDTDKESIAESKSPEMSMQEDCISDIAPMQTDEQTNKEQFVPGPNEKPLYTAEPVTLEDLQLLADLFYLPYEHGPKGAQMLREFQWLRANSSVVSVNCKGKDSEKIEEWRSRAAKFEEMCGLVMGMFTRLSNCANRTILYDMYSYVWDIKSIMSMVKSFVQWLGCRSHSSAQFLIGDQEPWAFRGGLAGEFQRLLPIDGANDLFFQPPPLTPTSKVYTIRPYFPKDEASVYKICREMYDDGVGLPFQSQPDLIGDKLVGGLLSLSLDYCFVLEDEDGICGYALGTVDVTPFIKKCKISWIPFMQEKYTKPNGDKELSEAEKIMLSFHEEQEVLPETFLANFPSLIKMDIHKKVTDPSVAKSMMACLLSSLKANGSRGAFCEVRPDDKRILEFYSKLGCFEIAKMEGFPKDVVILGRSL

On to `CNC(=O)c1csc(N2CCN([C@@H](C)c3ccc4c(c3)OCO4)CC2)n1` (single isomer, unassigned) [Example 56, (/?)-2-(4-(1-(Benzordiri,31dioxol-5-yl)ethyl)piperazin-1-yl)-N-methylthiazole^4-carboxamide or ^S)-2-(4-(1-(benzordiri,31dioxol-5-yl)ethyl)piperazin-1-yl)-N-methylthiazole^4-carboxamide], for which the “OGA inhibitor activity, in words” value was “very potent OGA inhibitors”. Moreover, the IC50 (read-out: OGA IC50) was less than 5e-08 M.
As for `CC(c1ccc2c(c1)OCO2)N1CCN(c2nc(CN)cs2)CC1` (stereo not drawn) [Example 84, (2-(4-(1-(benzordin,31 dioxol-5-yl)ethyl)piperazin-1-yl)thiazol-4-yl)methanamine], the concentration for half-maximal inhibition (IC50) (read-out: OGA IC50) fell in the range of 5e-08 to 2e-07 M.
Regarding `C[C@H](c1ccc2nccnc2c1)N1CCN(c2ncc(C(F)(F)F)cn2)CC1` (single isomer, unassigned) [Example 104, (S)-6-(1-(4-(5-(trifluoromethyl)pyrimidin-2-yl)piperazin-1-yl)ethyl)quinoxaline or (R)-6-(1-(4-(5-(trifluoromethyl)pyrimidin-2-yl)piperazin-1-yl)ethyl)quinoxaline], the IC50 (OGA IC50 (M)) lay within 5e-08 to 2e-07 M.
For the molecule `C[C@@H](c1ccc2c(c1)OCO2)N1CCN(c2ncc(C3(O)CCCCC3)cn2)CC1` [Example 180, (S)-1-(2-(4-(1-(benzo[dl][1,31dioxol-5-yl)ethyl)piperazin-1-yl)pyrimidin-5-yl)cyclohexan-1-ol], the “OGA inhibitor activity, in words” value is “very potent OGA inhibitors”.
Regarding `CC(=O)Nc1cnc(N2CCN([C@H](C)c3ccc4c(c3)OCO4)CC2)nc1` (single isomer, unassigned) [Example 77], the IC50 (OGA IC50 (M)) is 1e-06 to 1e-05 M.
Consider `C[C@@H](c1ccc2c(c1)OCO2)N1CCN(c2ncc(F)cn2)CC1` [Example 173, (S)-2-(4-(1-(benzofdin,31dioxol-5-yl)ethyl)piperazin-1-yl)-5-fluoropyrimidine], for which the “OGA inhibitor activity, in words” value is on record as “very potent OGA inhibitors”.
Turning to `Cc1csc(N2CCN([C@H](C)c3ccc4c(c3)OCO4)CC2)n1` (single isomer, unassigned) [Example 15, (R)-2-(4-(1-(benzordiri,31dioxol-5-yl)ethyl)piperazin-1-yl)-4-methylthiazole or (S)-2-(4-(1-(benzordiri,31 dioxol-5-yl)ethyl)piperazin-1-yl)-4-methylthiazole], the IC50 (OGA IC50 (M)) was 5e-08 to 2e-07 M.
On to `CCNC(=O)c1cnc(N2CCN([C@@H](C)c3ccc4c(c3)OCO4)CC2)s1` (single isomer, unassigned) [Example 60], for which, under “OGA IC50 (M)”, the IC50 was in the range of 5e-08 to 2e-07 M.
As for `Cc1ncc(N2CCN(C(C)c3ccc4c(c3)OCO4)CC2)s1` (racemic) [Example 37, 5-(4-(1-(Benzordiri,31dioxol-5-yl)ethyl)piperazin-1-yl)-2-methylthiazole], the “OGA inhibitor activity, in words” value is reported as “very potent OGA inhibitors”.
Consider `C[C@@H](c1ccc2c(c1)OCCO2)N1CCN(c2ncc(C(=O)N3CCN(C)CC3)s2)CC1` (single isomer, unassigned) [Example 75], for which the “OGA inhibitor activity, in words” value was “very potent OGA inhibitors”. The IC50 (OGA IC50 (M)) is less than 5e-08 M.
For the setting “OGA IC50 (M)”, `C[C@@H](c1ccc2c(c1)OCCO2)N1CCN(c2ncc(C(=O)N(C)C)s2)CC1` (single isomer, unassigned) [Example 64] gave an IC50 of less than 5e-08 M.
Under “OGA IC50 (M)”, `C[C@@H](c1ccc2c(c1)OCCO2)N1CCN(c2ncc(C(=O)N(C)C)s2)CC1` (single isomer, unassigned) [Example 63] yielded an IC50 of 1e-06 to 1e-05 M.
Take `C[C@H](O)c1cnc(N2CCN([C@@H](C)c3ccc4c(c3)OCO4)CC2)nc1` (single isomer, unassigned) [Example 198]: the IC50 (read-out: OGA IC50) is less than 5e-08 M.
The same measure, in the same setting: with `C[C@@H](c1ccc2c(c1)OCCO2)N1CCN(c2ncc(C(=O)N3CCC(O)CC3)s2)CC1` (single isomer, unassigned) [Example 81, (/?)-(2-(4-(1-(2,3-Dihydrobenzorbin,41dioxin-6-yl)ethyl)piperazin-1-yl)thiazol-5-yl)(4-hydroxypiperidin-1-yl)methanone or (S)-(2-(4-(1-(2,3-Dihydrobenzorbin,41dioxin-6-yl)ethyl)piperazin-1-yl)thiazol-5-yl)(4-hydroxypiperidin-1-yl)methanone] the figure was less than 5e-08 M.
Take `C[C@@H](c1ccc2c(c1)OCCO2)N1CCN(c2ncc(C(=O)N3CCN(C)CC3)s2)CC1` (single isomer, unassigned) [Example 74]: the 50% inhibitory concentration (IC50) (OGA IC50 (M)) lay within 1e-06 to 1e-05 M.
Take `C[C@@H](c1ccc2c(c1)OCO2)N1CCN(c2ncc(C3(O)CCCC3)cn2)CC1` [Example 181, (S)-1-(2-(4-(1-(benzofdlH,31dioxol-5-yl)ethyl)piperazin-1-yl)pyrimidin-5-yl)cyclopentan-1-ol]: the “OGA inhibitor activity, in words” value is “very potent OGA inhibitors”.

What is called IC50 is the concentration needed to halve the response being measured.

The record behind these values is patent US11046712B2, “Glycosidase inhibitors” (Asceneuron SA, priority 2014, dated 2021).
